The values that follow are results of earlier work, collected in US7135437B2, “Stable liquid pesticide compositions” (Monsanto Technology LLC, priority 2000, dated 2006).

For this data set the following is noted: at 20° C.

On to `O=C(O)CNCP(=O)([O-])O.[K+]` [glyphosate potassium salt], for which the “solubility in pure water, glyphosate acid equivalent” value is recorded as “about 44 % glyphosate acid equivalent (a.e.) by weight”. In addition, the “solubility in pure water” value (as salt) is “about 54 % by weight”.
